Laboratory results published in PubChem BioAssay (NCI).
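Cultured in 96-well plates, cells were exposed to test compound for 48 hours across five concentrations. Abbreviation: GI50, concentration required for 50% inhibition of growth. TGI: total growth inhibition.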

Key:
Assay in all cases: NCI anticancer screen, dose series, 48 h
[1] = test system: BT-549 breast
[2] = test system: CAKI-1 renal
[3] = test system: M14 melanoma
[4] = test system: RPMI-8226 leukemia
[5] = test system: SK-MEL-5 melanoma
[6] = test system: HCT-116 colon
[7] = test system: HT29 colon
[8] = test system: MOLT-4 leukemia
[9] = test system: TK-10 renal
[10] = test system: UACC-257 melanoma
[11] = test system: UO-31 renal

**Q.** For `CNC(=O)c1cc(Oc2cccc3nc(NC(=O)Nc4ccc(F)cc4F)ccc23)ccn1`, which GI50 [1] is on record?
**A.** > 50 µM

**Q.** What about the TGI [1] of the same compound?
**A.** > 50 µM

**Q.** And the GI50 [2]?
**A.** 1.61 µM

**Q.** What about the TGI [2] of the same compound?
**A.** > 50 µM

**Q.** What about the GI50 [3] of the same compound?
**A.** 1.89 µM

**Q.** What about the TGI [3] of the same compound?
**A.** > 50 µM

**Q.** What about the GI50 [4] of the same compound?
**A.** 2.2 µM

**Q.** What about the TGI [4] of the same compound?
**A.** > 50 µM

**Q.** And the GI50 [5]?
**A.** 1.02 µM

**Q.** What about the TGI [5] of the same compound?
**A.** > 50 µM

**Q.** With `COc1ccc(/C=C(\C2=NC(=O)CS2)c2nc3ccccc3[nH]2)cc1` as the compound, how does the TGI [2] read?
**A.** > 100 µM

**Q.** What about the TGI [6] of the same compound?
**A.** > 100 µM

**Q.** What about the TGI [7] of the same compound?
**A.** > 100 µM

**Q.** What about the TGI [3] of the same compound?
**A.** > 100 µM

**Q.** What about the TGI [8] of the same compound?
**A.** > 100 µM

**Q.** And the TGI [4]?
**A.** > 100 µM

**Q.** And the TGI [5]?
**A.** > 100 µM

**Q.** What about the TGI [9] of the same compound?
**A.** > 100 µM

**Q.** And the TGI [10]?
**A.** > 100 µM

**Q.** And the TGI [11]?
**A.** > 100 µM

**Q.** How did the TGI [1] turn out when `c1ccc(Sc2nc(Sc3ccccc3)nc(Sc3ccccc3)n2)cc1` was run?
**A.** > 100 µM

**Q.** And the TGI [2]?
**A.** > 100 µM

**Q.** And the TGI [6]?
**A.** > 100 µM

**Q.** What about the TGI [7] of the same compound?
**A.** > 100 µM

**Q.** And the TGI [3]?
**A.** > 100 µM

**Q.** And the TGI [8]?
**A.** > 100 µM

**Q.** What about the TGI [4] of the same compound?
**A.** > 100 µM

**Q.** And the TGI [5]?
**A.** > 100 µM

**Q.** What about the TGI [9] of the same compound?
**A.** > 100 µM

**Q.** What about the TGI [10] of the same compound?
**A.** > 100 µM

**Q.** And the TGI [11]?
**A.** > 100 µM

**Q.** Which GI50 [2] does the source give for `CN1CCN(Cn2nc(-c3cc(F)c(Cl)cc3Cl)oc2=S)CC1` here?
**A.** 34.2 µM

**Q.** And the TGI [2]?
**A.** > 100 µM

**Q.** And the GI50 [7]?
**A.** 24.5 µM

**Q.** And the TGI [7]?
**A.** 54.7 µM

**Q.** And the GI50 [8]?
**A.** 30.5 µM

**Q.** What about the TGI [8] of the same compound?
**A.** 70.9 µM

**Q.** What about the GI50 [4] of the same compound?
**A.** 22.7 µM

**Q.** What about the TGI [4] of the same compound?
**A.** 50.9 µM

**Q.** And the GI50 [5]?
**A.** 17.4 µM

**Q.** What about the TGI [5] of the same compound?
**A.** 33.7 µM

**Q.** And the GI50 [9]?
**A.** 39.3 µM

**Q.** And the TGI [9]?
**A.** > 100 µM

**Q.** What about the GI50 [11] of the same compound?
**A.** 74.1 µM

**Q.** What about the TGI [11] of the same compound?
**A.** > 100 µM

**Q.** Which TGI [2] does the source give for `COc1cccc2c1C(=O)c1c(O)c3c(c(O)c1C2=O)CC(O)(C(C)=O)CC3O` (stereo not drawn) here?
**A.** 21.8 µM

**Q.** What about the TGI [6] of the same compound?
**A.** 10.1 µM

**Q.** And the TGI [7]?
**A.** 36.4 µM

**Q.** And the TGI [8]?
**A.** 11.3 µM

**Q.** And the TGI [4]?
**A.** 16.6 µM

**Q.** And the TGI [5]?
**A.** 6.98 µM

**Q.** And the TGI [10]?
**A.** 32.7 µM

**Q.** What about the TGI [11] of the same compound?
**A.** 28.8 µM

**Q.** Which results are given for `CN1C(=O)[C@@H]2[C@@H]3c4ccccc4N[C@@H]3c3[nH]c4ccccc4c3[C@@H]2C1=O`?
**A.** TGI [1]: 53.6 µM; TGI [2]: > 100 µM; TGI [6]: 74.9 µM; TGI [7]: > 100 µM; TGI [8]: 55.6 µM; TGI [4]: 47 µM; TGI [5]: 25 µM; TGI [9]: 77.6 µM; TGI [10]: 48.9 µM; TGI [11]: 43.9 µM

**Q.** For `Cc1ccc(O)cc1` (tested in a mixture with another compound), which TGI [1] is on record?
**A.** > 100 µM

**Q.** What about the TGI [2] of the same compound?
**A.** > 100 µM

**Q.** And the TGI [6]?
**A.** > 100 µM

**Q.** What about the TGI [7] of the same compound?
**A.** > 100 µM

**Q.** And the TGI [3]?
**A.** > 100 µM

**Q.** And the TGI [8]?
**A.** > 100 µM

**Q.** And the TGI [4]?
**A.** > 100 µM

**Q.** And the TGI [5]?
**A.** > 100 µM

**Q.** What about the TGI [9] of the same compound?
**A.** > 100 µM

**Q.** What about the TGI [10] of the same compound?
**A.** > 100 µM

**Q.** And the TGI [11]?
**A.** > 100 µM

**Q.** Which results are given for `CN(C)CCNC(=O)c1cccc2[nH]c(-c3ccc(Cl)cc3)nc12`?
**A.** TGI [2]: 12.8 µM; TGI [6]: 13.8 µM; TGI [7]: 16.6 µM; TGI [8]: 5.5 µM; TGI [4]: 8.78 µM; TGI [5]: 16.7 µM; TGI [10]: 20.4 µM; TGI [11]: 12.1 µM

**Q.** For `O=P(Nc1cccc(Cl)c1)(Oc1ccccc1)N(CCCl)CCCl` (stereo not drawn), which TGI [2] is on record?
**A.** 31.5 µM

**Q.** What about the TGI [6] of the same compound?
**A.** 25.8 µM

**Q.** And the TGI [7]?
**A.** 28.4 µM

**Q.** And the TGI [3]?
**A.** 28.6 µM

**Q.** What about the TGI [8] of the same compound?
**A.** > 100 µM

**Q.** And the TGI [5]?
**A.** 25.3 µM

**Q.** What about the TGI [9] of the same compound?
**A.** 30.6 µM

**Q.** And the TGI [10]?
**A.** 27.2 µM

**Q.** What about the TGI [11] of the same compound?
**A.** > 100 µM

**Q.** Which results are given for `Cc1cc2nc(CC(C(F)(F)F)C(F)(F)F)oc2cc1C`?
**A.** TGI [1]: 6.65 µM; TGI [2]: 5.13 µM; TGI [6]: 2.64 µM; TGI [7]: 7.91 µM; TGI [3]: 4.72 µM; TGI [4]: 1.61 µM; TGI [5]: 12.2 µM; TGI [9]: 39.7 µM; TGI [10]: 9.55 µM; TGI [11]: 26.2 µM

**Q.** `COCC1N=C(c2cc(OC)c(OC)c(OC)c2-c2cc3c(cc2[C@@H](C)O)OCO3)O[C@H]1c1ccccc1` (stereo partly drawn) was tested. Which TGI [2] did it give?
**A.** > 100 µM

**Q.** And the TGI [6]?
**A.** > 100 µM

**Q.** What about the TGI [7] of the same compound?
**A.** > 100 µM

**Q.** And the TGI [8]?
**A.** > 100 µM

**Q.** What about the TGI [4] of the same compound?
**A.** > 100 µM

**Q.** And the TGI [5]?
**A.** > 100 µM

**Q.** And the TGI [10]?
**A.** > 100 µM

**Q.** What about the TGI [11] of the same compound?
**A.** > 100 µM

**Q.** With `Cc1ccc(S(=O)(=O)NCCCSCCO)cc1` as the compound, how does the TGI [6] read?
**A.** > 100 µM

**Q.** And the TGI [7]?
**A.** > 100 µM

**Q.** What about the TGI [3] of the same compound?
**A.** > 100 µM

**Q.** And the TGI [8]?
**A.** > 100 µM

**Q.** And the TGI [5]?
**A.** > 100 µM

**Q.** And the TGI [9]?
**A.** > 100 µM

**Q.** And the TGI [10]?
**A.** > 100 µM

**Q.** What about the TGI [11] of the same compound?
**A.** > 100 µM

**Q.** `O=c1[nH]c(-c2ccc(Cl)cc2)cc2ccsc12` was tested. Which TGI [1] did it give?
**A.** > 100 µM

**Q.** And the TGI [2]?
**A.** 7.04 µM

**Q.** What about the TGI [6] of the same compound?
**A.** > 100 µM

**Q.** What about the TGI [7] of the same compound?
**A.** > 100 µM

**Q.** And the TGI [3]?
**A.** > 100 µM

**Q.** And the TGI [8]?
**A.** > 100 µM

**Q.** And the TGI [4]?
**A.** 19.1 µM

**Q.** And the TGI [5]?
**A.** > 100 µM

**Q.** What about the TGI [9] of the same compound?
**A.** 8.22 µM

**Q.** What about the TGI [10] of the same compound?
**A.** 7.87 µM

**Q.** And the TGI [11]?
**A.** > 100 µM

**Q.** What does the source list for `CCOC(=O)C1=C(C)N(c2ccc(Cl)cc2)C2(O)C=CC(Nc3ccc(Cl)cc3)=C3C(=O)N(c4ccccc4)C(=O)C312` (stereo not drawn)?
**A.** TGI [1]: 4.69 µM; TGI [2]: 13.5 µM; TGI [7]: 16.9 µM; TGI [3]: 19.7 µM; TGI [8]: > 100 µM; TGI [4]: 4.13 µM; TGI [5]: 11 µM; TGI [9]: 52.1 µM; TGI [10]: 39.2 µM; TGI [11]: 20.3 µM
